Measured values reported in publication PMC7407272, “Induction of Lysosome Membrane Permeabilization as a Therapeutic Strategy to Target Pancreatic Cancer Stem Cells” (Cancers, 2020).

How the values were obtained:
[1] = mESC viability (MTS) screen and dose response; format: cell-based, mouse; settings: mouse, mouse embryonic stem cells (mESCs), 5 µM, MTS
Procedure: (§1) Mouse embryonic stem cells were cultured in Dulbecco’s Modified Eagle Medium (DMEM) containing 15% Fetal bovine serum (FBS), non-essential amino acids (NEAA), 2-mercaptoethanol, and Leukemia inhibitory factor (LIF) and passaged on gelatinized plates under standard conditions.
(§2) Murine embryonic stem cells (mESCs) were plated at 20,000 cells per well in gelatinized 96 well plates. Compounds from the 640 compound ETP library were added by a Beckman FX 96 tip to achieve a final concentration of 5 µM in each well, and each compound was tested in duplicate. Cells were treated for a total of 30 h prior to assessing cell viability using CellTiter 96® AQueous One Solution Cell Proliferation Assay (MTS) assay according to manufacturer’s instructions (G3582, Promega, Madison, WI, USA). Dose response curves were carried out on mESCs under the same conditions using indicated compounds. To test the viability of CSCs, 10,000 PDAC cells were plated in spheroid conditions and immediately treated with indicated compounds and concentrations for the duration of the sphere formation assay. For adherent non-CSCs, 20,000 cells were plated in wells of standard tissue culture-treated plates (Corning, Corning, NY, USA) and treated the following day with indicated compounds and concentrations. For re-plated spheres (Figure S1B), 7-day-old spheres were filtered using a 40 µM filter (Fisher Scientific, Hampton, NH, USA), washed once with 1× PBS, and incubated with trypsin 0.05% EDTA at 37 °C (Thermo Fisher Scientific, Waltham, MA, USA) to achieve a single cell suspension (approximately 10–30 min, depending on the PDAC culture). Trypsinized cells were counted and 20,000 cells were plated in wells of standard tissue culture-treated plates (Corning) and treated the following day with indicated compounds and concentrations.

[2] = test system: mouse embryonic stem cells (mESCs); experiment: mESC viability (MTS) screen and dose response; format: cell-based; settings: Mus musculus, Embryonic stem cell, 30 h
Procedure: as §1, §2

PDAC4 3D spheres = experiment: Viability curves on PDAC4 3D spheres; format: cell-based, human; settings: 30 h
Source text: The PDAC patient-derived xenograft (PDX) Panc354 (referred to hereafter as PDAC3) was obtained from Dr. Manuel Hidalgo under a Material Transfer Agreement with the Spanish National Cancer Centre (CNIO), Madrid, Spain (Reference no. I409181220BSMH). PDAC1, PDAC2 and PDAC4 PDXs were established from primary patient resected tumors. Samples were provided by the BioBank Hospital Ramón y Cajal-IRYCIS (PT13/0010/0002), integrated in the Spanish National Biobanks Network and they were processed following standard operating procedures with the appropriate approval of the Ethical and Scientific Committees (Control no. No. Control: DE-BIOB-73 AC65, RG.BIOB-96 REV, and CI-BIOB-08-10-01 rev), with informed consent and according to Declaration of Helsinki principles. Primary patient tumors were subcutaneously implanted in immunocompromised female 6- to 8-week-old NU-Foxn1nu nude mice (Envigo, Barcelona, Spain) and subsequently passage in vivo to establish PDX PDAC1, PDAC2 and PDAC4. Primary PDX-derived in vitro cultures were established as previously detailed. […]
Pancreatic CSC spheres were generated as previously described in ultra-low attachment plates (Corning) using CSC media: serum-free DMEM/F12 medium (1:1; #21331-020; Gibco, Waltham, MA, USA), supplemented with Pen/Strep (1:100; #1500-063; Gibco, Waltham, MA, USA), Fungizone (1:250; #15290-018; Gibco), L-Glutamine (1:100; #25030-024; Gibco, Waltham, MA, USA), B-27 (1:50; #17504-044; Gibco, Waltham, MA, USA) and basic fibroblast growth factor (FGF-b) (1:5000; Gibco, Waltham, MA, USA). […] To quantify spheres of > 40 μm, 1 mL of sample volume was analyzed with a CASY® Cell Counter (Roche Applied Sciences, Mannheim, Germany). […]

PDAC2 cultures = experiment: Sphere formation assay; format: cell-based, human; settings: 0.1 µg/mL GEM or Cpd 1 at 1.25 or 2.5 µM
Source text: (§3) Pancreatic CSC spheres were generated as previously described in ultra-low attachment plates (Corning) using CSC media: serum-free DMEM/F12 medium (1:1; #21331-020; Gibco, Waltham, MA, USA), supplemented with Pen/Strep (1:100; #1500-063; Gibco, Waltham, MA, USA), Fungizone (1:250; #15290-018; Gibco), L-Glutamine (1:100; #25030-024; Gibco, Waltham, MA, USA), B-27 (1:50; #17504-044; Gibco, Waltham, MA, USA) and basic fibroblast growth factor (FGF-b) (1:5000; Gibco, Waltham, MA, USA). All cell culture was carried out at 37 °C in a 5% CO2 humidified incubator. To quantify spheres of > 40 μm, 1 mL of sample volume was analyzed with a CASY® Cell Counter (Roche Applied Sciences, Mannheim, Germany). The CASY® Cell Counter measuring principle is based on a capillary particle counter with pulse area analysis, that permits the determination of cell count, cell concentration, cell volume (peak), and average cell diameter, specifically diameters of 40–80 μm, 80–120 μm and >120 μm.

PDAC4 cultures = experiment: Sphere formation assay; format: cell-based, human; settings: 0.1 µg/mL GEM or Cpd 1 at 1.25 or 2.5 µM
Source text: as §3

[3] = test system: sphere-derived PDAC2 cells; experiment: Tumor initiating capacity of pre-treated cells injected subcutaneously; format: in vivo, NU-Foxn1nu nude mice; settings: cells treated 3 days with 0.1 µg/mL GEM or compound at 1.25 µM, then injected subcutaneously
Procedure: (§4) Female 6- to 8-week-old NU-Foxn1nu nude mice (Envigo, Spain) were subcutaneously injected with control or pre-treated 1 × 10^4 PDAC cells in 50 µL of Matrigel^TM (Corning). Tumor growth was monitored bi-weekly for up to 10 weeks. For Siramesine experiments, mice were subcutaneously implanted with PDAC1 and PDAC3 PDXs. After 4 weeks of tumor growth, mice were randomized into treatment groups (5 mice per group). Mice were treated with Siramesine twice a week (30 mg/kg by oral gavage formulated in 0.5% methylcellulose 15 cP in 0.9% NaCl solution) for ~4 weeks. Gemcitabine (GEMZAR®, Eli Lilly, Indianapolis, IN, USA) was administered twice a week (125 mg/kg i.p.) for ~4 weeks. Tumor volumes (mm^3) were determined twice per week using a digital caliper. Mice were sacrificed at 24 days post treatment initiation and tumors were extracted and analyzed by flow cytometry as described above. For second generation tumor formation, 1000 and 100 cells of indicated treatment groups were resuspended in Matrigel ^TM and injected subcutaneously in recipient NU-Foxn1nu nude mice and tumor formation was monitored for 10 weeks. Mice were housed according to institutional guidelines and all experiments were performed in compliance with the institutional guidelines for the welfare of experimental animals approved by the Universidad Autónoma de Madrid Ethics Committee (CEI 60-1057-A068) or by the Instituto de Salud Carlos III Ethics Committee (CBA12_2014-v3) and La Comunidad de Madrid (PROEX 335/14 or PROEX 53/14) and in accordance with the guidelines for Ethical Conduct in the Care and Use of Animals as stated in The International Guiding Principles for Biomedical Research involving Animals, developed by the Council for International Organizations of Medical Sciences (CIOMS).

PDAC1 xenografts = experiment: PDX treatment in nude mice; format: in vivo, NU-Foxn1nu nude mice
Procedure: (§5) Cells were analyzed with a 4-laser Attune NxT Acoustic Cytometer (ThermoFisher Scientific). Cells and digested tumors (as described in [41]) were resuspended in FLOW buffer (1X PBS; 3 mM EDTA (v/v); 3% FBS (v/v)), and the following fluorescently-tagged antibodies were used to label cells for 30 min at 4 °C: Mouse monoclonal anti-human CD133-PE (1:20, Cat no. 130-110-962, Miltenyi, Bergisch Gladbach, Germany), Mouse monoclonal anti-human CD133-APC (1:20, Cat no. 130-111-080, Miltenyi, Bergisch Gladbach, Germany), mouse monoclonal anti-human C-X-C chemokine receptor type 4- Phycoerythrin (CXCR4-PE) (1:20, Cat no. 130-117-354, Miltenyi, Bergisch Gladbach, Germany), or mouse monoclonal anti-human Epithelial cell adhesion molecule-fluorescein isothiocyanate (EpCAM-FITC) (1:20, Cat no. 130-111-115, Miltenyi, Bergisch Gladbach, Germany). Autofluorescent cells were excited with blue laser 488nm and selected as the intersection with the filters 530/40 and 580/30 as previously described. For lysosomes quantification, Acridine Orange (AO) (A1301, Thermo Fisher Scientific, Waltham, MA, USA) or Lysotracker Deep Red (DR) (L12492, Molecular probes, Life Technologies, Waltham, MA, USA) were used. AO fluorescence was assessed with two combinations of excitation and emission spectra: BL1 […] BL3 (Ex488/Em695/40, equal to the far-red channel (>670 nm)) Lysotracker DR fluorescence was assessed with RL1 (Ex638/Em670/14). Bafilomycin A1 (100 nM, Calbiochem, San Diego, CA, USA) was included as a positive control for lysosome disruption. For Annexin V staining, floating and attached cells were pooled and resuspended in 1× AnnexinV staining buffer containing AnnexinV-APC diluted 1:20 (Biotium, Freemont, CA, USA) and incubated for 20 min at room temperature prior to flow cytometric analysis. For all assays, DAPI was used to mark and exclude dead cells, and data were analyzed using the software FlowJo v9.3 (Tree Star Inc., Ashland, OR, USA).
as §4

PDAC3 xenografts = experiment: PDX treatment in nude mice; format: in vivo, NU-Foxn1nu nude mice; settings: PDAC3 PDX; GEM 125 mg/kg i.p. biweekly, SIR 30 mg/kg oral gavage; 23 days
Procedure: as §5, §4

PDAC1 tumor cells = experiment: Second generation tumor formation (serial passage, ELDA); format: in vivo, NU-Foxn1nu nude mice
Procedure: as §4
(§6) Results are presented as means ± standard error of the mean (SEM) unless stated otherwise. An unpaired two-tailed t test was performed to determine significance. p values < 0.05 were considered statistically significant. All analyses were performed using GraphPad Prism version 6.0 (San Diego, California USA). CSC frequencies and significance were determined using the on-line extreme-limiting dilution assays (ELDA) program (http://bioinf.wehi.edu.au/software/elda/).

PDAC3 tumor cells = experiment: as above; format: in vivo, NU-Foxn1nu nude mice
Procedure: as §4, §6

PDAC2 3D spheres = experiment: Viability curves on PDAC2 3D spheres; format: cell-based, human; settings: Homo sapiens, PDAC-2, 30 h; read-out: EC50 (viability), PDAC2 spheres
Source text: The PDAC patient-derived xenograft (PDX) Panc354 (referred to hereafter as PDAC3) was obtained from Dr. Manuel Hidalgo under a Material Transfer Agreement with the Spanish National Cancer Centre (CNIO), Madrid, Spain (Reference no. I409181220BSMH). PDAC1, PDAC2 and PDAC4 PDXs were established from primary patient resected tumors. Samples were provided by the BioBank Hospital Ramón y Cajal-IRYCIS (PT13/0010/0002), integrated in the Spanish National Biobanks Network and they were processed following standard operating procedures with the appropriate approval of the Ethical and Scientific Committees (Control no. No. Control: DE-BIOB-73 AC65, RG.BIOB-96 REV, and CI-BIOB-08-10-01 rev), with informed consent and according to Declaration of Helsinki principles. Primary patient tumors were subcutaneously implanted in immunocompromised female 6- to 8-week-old NU-Foxn1nu nude mice (Envigo, Barcelona, Spain) and subsequently passage in vivo to establish PDX PDAC1, PDAC2 and PDAC4. Primary PDX-derived in vitro cultures were established as previously detailed. Briefly, xenografts were minced, enzymatically digested with collagenase (Stem Cell Technologies) for 60 min at 37 °C and after centrifugation for 5 min at 1800 rpm, the cell pellets were resuspended and cultured in RPMI (1:1; #61870-010; Gibco, Waltham, MA, USA) supplemented with 10% FBS (Invitrogen, Waltham, MA, USA), Pen/Strep (1:100; #1500-063; Gibco, Waltham, MA, USA), and Fungizone (1:250; #15290-018; Gibco, Waltham, MA, USA). Primary cultures were tested for Mycoplasma at least every 4 weeks.
as §3
Murine embryonic stem cells (mESCs) were plated at 20,000 cells per well in gelatinized 96 well plates. Compounds from the 640 compound ETP library were added by a Beckman FX 96 tip to achieve a final concentration of 5 µM in each well, and each compound was tested in duplicate. Cells were treated for a total of 30 h prior to assessing cell viability using CellTiter 96® AQueous One Solution Cell Proliferation Assay (MTS) assay according to manufacturer’s instructions (G3582, Promega, Madison, WI, USA). Dose response curves were carried out on mESCs under the same conditions using indicated compounds. To test the viability of CSCs, 10,000 PDAC cells were plated in spheroid conditions and immediately treated with indicated compounds and concentrations for the duration of the sphere formation assay. […]

O=C(Nc1cccc(OC(F)(F)F)c1)c1cnc2ccc(N3CCCC4(CCNCC4)C3)nn12 [Cpd 3]
viability at 30 h, 5 µM [1]: 9% | EC50 [2]: 1.5 µM

C#CCCC1(CCN2CCC(CNc3ccc4ncc(C(=O)Nc5cccc(OC(F)(F)F)c5)n4n3)CC2)N=N1 [Cpd 25, 6-({1-[2-(3-But-3-ynyl-3H-diazirin-3-yl)-ethyl]-piperidin-4-ylmethyl}-amino)-imidazo [1,2-b]pyridazine-3-carboxylic acid (3-trifluoromethoxy-phenyl)-amide]
EC50 (PDAC4 3D spheres; Homo sapiens): 2.62 µM

C#CCCC1(CC(=O)N2CCC(CNc3ccc4ncc(C(=O)Nc5cccc(OC(F)(F)F)c5)n4n3)CC2)N=N1 [Cpd 26, 6-({1-[2-(3-But-3-ynyl-3H-diazirin-3-yl)-acetyl]-piperidin-4-ylmethyl}-amino)-imidazo[1,2-b]pyridazine-3-carboxylic acid (3-trifluoromethoxy-phenyl)-amide]
effect on PDAC4 CSC viability (PDAC4 3D spheres): inactive

Nc1ccn([C@@H]2O[C@H](CO)[C@@H](O)C2(F)F)c(=O)n1 [gemcitabine]
sphere-forming capacity (PDAC2 cultures): did not affect sphere formation | sphere-forming capacity (PDAC4 cultures): increased | tumor formation / growth from pre-treated cells [3]: gave rise to larger tumors | tumor volume versus control (PDAC1 xenografts; PDAC1 PDX, GEM 125 mg/kg i.p. biweekly, SIR 30 mg/kg oral gavage, 23 days): significantly reduced | autofluorescent-positive cells in tumors (PDAC1 xenografts; PDAC1 tumors, day 23, flow cytometry): marked increase | tumor volume versus control (PDAC3 xenografts): significantly reduced | CSC freq (PDAC1 tumor cells; PDAC1, Extreme Limiting Dilution Analysis, listed as GEM): 1/272 | Tumors/n (2nd generation) (PDAC1 tumor cells; PDAC1, no. cells 10^2): 5/8 | Tumors/n (2nd generation) (PDAC1 tumor cells; PDAC1, no. cells 10^3): 7/8 | CSC freq (PDAC3 tumor cells; PDAC3, Extreme Limiting Dilution Analysis, listed as GEM): 1/102 | Tumors/n (2nd generation) (PDAC3 tumor cells; PDAC3, no. cells 10^2): 5/8 | Tumors/n (2nd generation) (PDAC3 tumor cells; PDAC3, no. cells 10^3): 8/8

OC(c1cc(C(F)(F)F)nc2c(C(F)(F)F)cccc12)C1CCCCN1 (centres unmarked) [mefloquine, reference compound]
EC50 (PDAC2 3D spheres): 7.6 µM
